Assay results reported in patent US20110275574A1, “METHOD OF INHIBITING PROLIFERATION OF HEPATIC STELLATE CELLS” (Agency for Science, Technology and Research, priority 2009, published 2011).
d = 2'-deoxy (DNA); r = 2'-OH (RNA)

Experiments:
HSC-2 cells [1] = assay: gap-FRAP analysis of gap junction intercellular communication; format: cell-based, rat
Method: Analysis of gap junction intercellular communication: HSC-2 cells were grown in a 60 mm cell culture dish overnight. At 90% cell confluence, hTGF-β1 (final concentration 10 ng/ml) or carbenoxolone (final concentration 40 μM) was added and incubated for 6 hours. As control, only PBS was given to the cells. Alternatively, BIM I (final concentration 5 μM) was added 30 minutes before the addition of hTGF-[3]. After a brief rinse in PBS, cells were incubated in D-MEM without phenol red, containing 5,6-carboxyfluorescein diacetate (Research Organics, USA) at a final concentration of 50 μg/ml and incubated in a 37° C. humidified incubator for 30 min. The cells were then rinsed twice with PBS and D-MEM without phenol red was added before proceeding with the Fluorescence Recovery After Photobleaching (FRAP) assay. The FRAP application included in the software package of the LEICA TCS SP2 equipped with the DM6000 (LEICA, Germany) was used. A 63× immersed objective (Leica HCX APO L U-V-I 63×/0.90 Water UV) was used. The argon laser at 488 nm was used for excitation and the fluorescence signal was captured between 500 and 535 nm. The conditions were as follows: 5 pre-bleach scans at 10% laser power, 40 bleach scans at 100% laser power followed by 60 post-bleach scans at 15 seconds intervals. During the bleaching period, the Zoom mode was used to bleach a single cell (target cell) defined in a region of interest (ROI). All data were corrected for photobleaching during post-bleach acquisition using the whole scanned area. The time constant of recovery, tau (τ), was estimated by fitting the corrected experimental data (OriginPro 7 SR4, OriginLab USA) to the following function: F(t)=F0+(F∞−F0)(1−e^−t/τ), with F(t) being the corrected fluorescence intensity and F∞ being the asymptotic value of the fluorescence intensity. The transfer constant (k) was calculated from k=1/τ and normalized by dividing by the number of cells in contact with the target cell. The fluorescence recovery for each cell was about 50%.

HSC-2 cells [2] = assay: Cell counting (proliferation) of HSC-2 cells; format: cell-based, rat; conditions: for total number of cells: HSC-2, Cx43 siRNA 10 nM, 48 hours, versus mock-transfected
Method: (§1) Snai1 and connexin 43 siRNAs transfection: Shortly before transfection, 1−2×10^6 HSC-2 cells were seeded in 100 mm cell culture dishes and incubated at 37° C. The siRNA was added at a final concentration of 10 nM to 1 ml of D-MEM without serum, followed by 120 μl of HiPerfect transfection reagent (Qiagen, Germany) and incubated for 10 min. The siRNA/transfection reagent solution was added drop-wise to the cells and incubated for 24 or 48 hours. As mock control, only HiPerfect reagent was added to the cells. The Snai1 siRNAs used were Rn_Snai1—1 and Rn_Snai1—3 and the Cx43 siRNAs used were Rn_Gja1—1 and Rn_Gja1—5 (Qiagen, Germany).
Cell counting: After treatment, cells were washed once with PBS and detached using trypsin/EDTA. Following centrifugation at 800 rpm for 4 min, the cell pellet was resuspended in 1 ml D-MEM and the cells were counted using the forward scatter function of the GUAVA PCA-96 (Guava Technologies, CA, USA).

Cx43 mRNA = Cx43 mRNA expression by quantitative real-time PCR in HSC-2 cells; format: cell-based, rat; conditions: for down-regulation of Cx43 mRNA: HSC-2, Cx43 siRNA 10 nM, 48 hours, relative to mock-transfected
Method: (§2) Cell culture conditions: Primary hepatic stellate cells were isolated from male Wistar rats according to a previously published procedure (Weiskirchen and Gressner, 2005). The protocol was approved by the Institutional Animal Care and Use Committee (IACUC) of the Biomedical Research Council of Singapore. The purity of primary HSCs was assessed by vitamin A autofluorescence one day after isolation. The cell line HSC-2 was described elsewhere (Maubach et al., 2008). All cells were cultivated in a humidified 37° C. incubator circulated with 5% CO2. High glucose Dulbecco's modified Eagle medium (D-MEM) containing 10% fetal bovine serum, 100 units/ml penicillin and 100 μg/ml streptomycin was used during cell culture. Trypsin-EDTA was purchased from Biochrome (Germany). All other cell culture reagents were from Invitrogen (CA, USA).
(§3) Hepatic stellate cells treatment with recombinant human TGF-β1: Twenty four hours prior to treatment, HSCs were seeded in 75 cm^2 tissue culture flasks. At 60-70% cell confluence, recombinant human TGF-β1 (hTGF-[3]) was added at a final concentration of 1 or 10 ng/ml and incubated for 2, 6, 10, 24 or 30 hours. For the control treatment, only phosphate-buffered saline (PBS) was given to the cells. In some experiments, HSC-2 cells were treated with bisindolylmaleimide I (BIM I) at a final concentration of 5 μM for 30 min before treatment with 10 ng/ml hTGF-β1.
Reverse transcription and quantitative PCR: Total RNA was isolated from cells according to the manufacturer's protocol (RNA II kit, Machery-Nagel, Germany). All reagents for reverse transcription and real-time PCR were from Applied Biosystems (CA, USA). One microgram of total RNA was reverse transcribed to cDNA in a total reaction volume of 50 μl at conditions described in the RT kit (N8080234). Real-time PCR reactions were performed using the Fast Real Time PCR System (Applied Biosystems). Three microlitres of cDNA were used in a PCR reaction volume of 10 μl. The Taqman probes for target genes Cx43 and Snai1, as well as for endogenous control β-actin were Rn01433957_m1, Rn00441533_g1 and 4352341E, respectively. The PCR conditions were 95° C. for 20 s and 40 cycles of amplification at 95° C. for 3 s and 60° C. for 30 s.
as §1

Snai1 mRNA = Snai1 mRNA expression in in vitro activated primary HSCs; format: cell-based, rat; conditions: 1 and 10 ng/ml hTGF-β1, 10 hours
Method: as §2
Hepatic stellate cells treatment with recombinant human TGF-β1: Twenty four hours prior to treatment, HSCs were seeded in 75 cm^2 tissue culture flasks. At 60-70% cell confluence, recombinant human TGF-β1 (hTGF-[3]) was added at a final concentration of 1 or 10 ng/ml and incubated for 2, 6, 10, 24 or 30 hours. For the control treatment, only phosphate-buffered saline (PBS) was given to the cells. […]
Reverse transcription and quantitative PCR: Total RNA was isolated from cells according to the manufacturer's protocol (RNA II kit, Machery-Nagel, Germany). […]

pCx43 Ser368 = assay: Phosphorylation of Cx43 at serine 368 by Western blot in HSC-2 cells; format: cell-based, rat
Method: as §3
(§4) SDS-PAGE and Western blot: Cell lysis and subsequent separation of total protein in SDS-PAGE followed by Western blot was performed as recently described (Lim et al., 2008). The membrane was blocked with 5% non-fat milk in TBS-Tween (TBS-T). The Cx43 (sc-9059, Santa Cruz Biotechnology, USA), phosphorylated Cx43 at serine 368 (pCx43 Ser368, 3511S, Cell Signaling Technology, USA), PCNA (Ab29, Abcam, UK) and β-actin (A2228, Sigma, USA) primary antibodies were applied at a dilution of 1:1000, 1:750, 1:5000 and 1:7500 respectively in blocking solution. […] Semi-quantitative densitometric analysis of Western blots was performed using the ImageJ software (W. Rasband, NIH; rsb.info.nih.gov/ij/).

Cx43 protein = Cx43 protein expression by Western blot in HSC-2 cells; format: cell-based, rat
Method: Hepatic stellate cells treatment with recombinant human TGF-β1: Twenty four hours prior to treatment, HSCs were seeded in 75 cm^2 tissue culture flasks. […] For the control treatment, only phosphate-buffered saline (PBS) was given to the cells. In some experiments, HSC-2 cells were treated with bisindolylmaleimide I (BIM I) at a final concentration of 5 μM for 30 min before treatment with 10 ng/ml hTGF-β1.
as §4, with “solution. After three washes in TBS-T, the appropriate secondary antibody conjugated with horse radish peroxidase (Santa Cruz Biotechnology, USA) was added at a dilution of 1:2000 in blocking solution. After three washes in TBS-T, the membrane was developed with ECL Plus (RPN2132, GE Healthcare, UK).” for “solution.”, “rsb.info.nih.gov/ij/). […]” for “rsb.info.nih.gov/ij/).”

PCNA = assay: Expression of proliferation marker PCNA by Western blot in HSC-2 cells; format: cell-based, rat; conditions: HSC-2, 10 ng/ml hTGF-β1, 48 hours
Method: SDS-PAGE and Western blot: Cell lysis and subsequent separation of total protein in SDS-PAGE followed by Western blot was performed as recently described (Lim et al., 2008). The membrane was blocked with 5% non-fat milk in TBS-Tween (TBS-T). The Cx43 (sc-9059, Santa Cruz Biotechnology, USA), phosphorylated Cx43 at serine 368 (pCx43 Ser368, 3511S, Cell Signaling Technology, USA), PCNA (Ab29, Abcam, UK) and β-actin (A2228, Sigma, USA) primary antibodies were applied at a dilution of 1:1000, 1:750, 1:5000 and 1:7500 respectively in blocking solution. After three washes in TBS-T, the appropriate secondary antibody conjugated with horse radish peroxidase (Santa Cruz Biotechnology, USA) was added at a dilution of 1:2000 in blocking solution. After three washes in TBS-T, the membrane was developed with ECL Plus (RPN2132, GE Healthcare, UK). The incubation with pCx43 antibody was performed overnight at 4° C. All other incubations were carried out for 1 hour at room temperature. Semi-quantitative densitometric analysis of Western blots was performed using the ImageJ software (W. Rasband, NIH; rsb.info.nih.gov/ij/).
Snai1 and connexin 43 siRNAs transfection: Shortly before transfection, 1−2×10^6 HSC-2 cells were seeded in 100 mm cell culture dishes and incubated at 37° C. […]

[3] = test system: Snai1 consensus sequence in the Cx43 promoter; assay: Electrophoretic mobility shift assay, HSC-2 nuclear extract on Snai1 consensus sequence of rat Cx43 promoter; format: cell-based; conditions: nuclear extract of HSC-2, 10 ng/ml hTGF-β1 2 hours, versus untreated
Source text: Electrophoretic mobility shift assay: Based on the rat Cx43 gene (NW—001084790), biotinylated double-stranded oligonucleotide probe […]-3 [SEQ ID NO: 12], with the Snai1 consensus sequence (underlined), was synthesized (Research Biolabs, Singapore). In the mutated double-stranded oligonucleotide, the Snai1 consensus sequence was changed to CAGGAA. Nuclear protein extract was obtained using the NE-PER Nuclear and Cytoplasmic Extraction kit (Pierce, USA). The electrophoretic mobility shift assay was performed using reagents from the Snai1 kit according to its protocol (AY1398, Panomics, USA). Briefly, 5 μg nuclear protein extract was incubated in a reaction mixture consisting of poly d(1-C), 5× binding buffer and nuclease-free water for 5 min before addition of 1 μl probe (stock 20 nM). The total reaction volume was 10 μl. For competition assay, 2 μl unlabeled probe (stock 2 μM) was added 5 min prior to the addition of labeled probe. The reaction was incubated at 15° C. for 30 min. The samples were separated in a 6% non-denaturing polyacrylamide gel (Invitrogen) and transferred onto a nylon membrane.

Snai1 = Snai1 mRNA and protein expression (real-time PCR, Western blot) in HSC-2 cells; format: cell-based, rat
Method: as §3
Reverse transcription and quantitative PCR: Total RNA was isolated from cells according to the manufacturer's protocol (RNA II kit, Machery-Nagel, Germany). All reagents for reverse transcription and real-time PCR were from Applied Biosystems (CA, USA). One microgram of total RNA was reverse transcribed to cDNA in a total reaction volume of 50 μl at conditions described in the RT kit (N8080234). Real-time PCR reactions were performed using the Fast Real Time PCR System (Applied Biosystems). […]
SDS-PAGE and Western blot: Cell lysis and subsequent separation of total protein in SDS-PAGE followed by Western blot was performed as recently described (Lim et al., 2008). […] Semi-quantitative densitometric analysis of Western blots was performed using the ImageJ software (W. Rasband, NIH; rsb.info.nih.gov/ij/). […]

[4] = HSC-2, 10 ng/ml hTGF-β1, 48 hours
[5] = HSC-2, 10 ng/ml hTGF-β1, up to 30 hours

## CC1(C)[C@@H](OC(=O)CCC(=O)O)CC[C@]2(C)[C@H]3C(=O)C=C4[C@@H]5C[C@@](C)(C(=O)O)CC[C@]5(C)CC[C@@]4(C)[C@]3(C)CC[C@@H]12 [carbenoxolone]
HSC-2 cells [1]; HSC-2, 40 μM carbenoxolone, 6 hours
  dye transfer rate (k), reduced to: about 50%

## Cx43 siRNA 1: Cx43 siRNA, sense strand r(CAG UGC ACA UGU AAC UAA U)dTdT [SEQ ID NO: 6], antisense SEQ ID NO: 7 (Qiagen) (sense CAGUGCACAUGUAACUAAUTT; antisense AUUAGUUACAUGUGCACUGTT; sugars from the 5' end r19 d2, backbone not given here)
HSC-2 cells [2]
  total number of cells: significant decline
Cx43 mRNA
  down-regulation of Cx43 mRNA: about 65%

## Cx43 siRNA 5: Cx43 siRNA, sense strand r(GGU AAG CUU CCC UGG UCU A)dTdT [SEQ ID NO: 9], antisense SEQ ID NO: 10 (Qiagen) (sense GGUAAGCUUCCCUGGUCUATT; antisense UAGACCAGGGAAGCUUACCTT; sugars from the 5' end r19 d2, backbone not given here)
HSC-2 cells [2]
  total number of cells: significant decline
Cx43 mRNA
  down-regulation of Cx43 mRNA: about 65%

## hTGF-β1: recombinant human TGF-β1, pro-fibrogenic cytokine added to HSCs
Snai1 mRNA
  Snai1 mRNA: induced
HSC-2 cells [2]; [4]
  cell number: significant reduction
pCx43 Ser368; HSC-2, 10 ng/ml hTGF-β1, 6 hours
  phosphorylation of Cx43 at serine 368: increase
Cx43 protein; [4]
  expression of Cx43: significant reduction
Cx43 protein; HSC-2, 1 and 10 ng/ml hTGF-β1, 24 hours
  Cx43 protein regulation: down-regulated
PCNA
  expression of PCNA: significant reduction
[3]
  EMSA band of Snai1-oligonucleotide complex: more intense band
HSC-2 cells [1]; HSC-2, 10 ng/ml hTGF-β1, 6 hours, versus PBS control
  transfer rate of the fluorescence dye 5,6-carboxyfluorescein diacetate: significantly lower
Snai1; [5]
  Snai1 transcript and protein expression: increase
Snai1; HSC-2, 1 and 10 ng/ml hTGF-β1, 10 hours
  Snai1 mRNA: induced
Cx43 mRNA; HSC-2, 1 ng/ml hTGF-β1, 10 hours
  decrease of Cx43 transcripts: 30%
Cx43 mRNA; HSC-2, 10 ng/ml hTGF-β1, 10 hours
  decrease of Cx43 transcripts: 45%
Cx43 mRNA; [5]
  Cx43 transcript and protein expression: decrease

## CN(C)CCCn1cc(C2=C(c3c[nH]c4ccccc34)C(=O)NC2=O)c2ccccc21 [BIM I, bisindolylmaleimide I, reference compound]
pCx43 Ser368; HSC-2, 5 μM BIM I 30 min before 10 ng/ml hTGF-β1
  phosphorylation of Cx43 at serine 368 after hTGF-β1: reduces
HSC-2 cells [1]; HSC-2, 5 μM BIM I 30 minutes before 10 ng/ml hTGF-β1
  TGF-β1-induced down-regulation of GJIC: attenuated
